This passage reports AC50 and IC50 results from patent US12606541B2, “PPARg modulators and methods of use” (Eisai R&D Management Co., Ltd., priority 2020, dated 2026).

The target of one test is T1, His6-TEV-PPARγ-(234-505) (Homo sapiens, UniProt P37231).
T1 construct: The His6-TEV-PPARγ-(234-505) protein for assay was expressed and purified; TEV cleavage site (N); made in house
T1 sequence (P37231 234-505): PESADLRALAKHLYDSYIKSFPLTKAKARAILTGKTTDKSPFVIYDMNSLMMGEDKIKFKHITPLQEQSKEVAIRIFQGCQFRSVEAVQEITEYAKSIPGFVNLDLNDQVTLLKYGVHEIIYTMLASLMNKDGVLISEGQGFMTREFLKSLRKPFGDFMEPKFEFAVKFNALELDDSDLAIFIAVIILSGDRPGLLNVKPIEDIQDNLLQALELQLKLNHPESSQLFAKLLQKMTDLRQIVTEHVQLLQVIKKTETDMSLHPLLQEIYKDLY
Kind of test: TR-FRET Assay to Measure Co-R Peptide Recruitment to PPARγ. As to conditions: Co-R peptide (SMRT-ID2) recruitment; top final concentration 20 μM; read-out: TR-FRET i-Ag; AC50. In kind it is biochemical. In outline: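 Corepressor recruitment is measured by adding terbium-labeled anti-His antibody and FITC SMRT-ID2 peptide, at 5 and 200 nM final, after a 20-minute room-temperature protein–compound incubation. After one further hour, signal is converted to percent response between DMSO and 500 nM T0070907 wells.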

The test system of the next test is UM-UC-9 engineered cells. In words: Cell proliferation / short-term viability assay, CellTiter-Glo 144 h. The class given is cell-based, human. As to conditions: read-out: CTGlo 144 h UMUC9.5, G150. The essentials: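 Viability read by CellTiter-Glo 2.0 luminescence at day 7 versus DMSO-vehicle wells and a T0 plate measured on day 0. Cells: UM-UC-9 engineered assay-ready stocks, 500 cells/well in high-glucose DMEM with 10% FBS, 37° C, 5% CO2.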

Like-named read-outs stand apart in the source and are kept apart here.

On to `COc1cc(-c2cc(C(=O)N3CCC(C(=O)NC4CCN(c5ccc(C#N)cn5)C4)CC34CC4)n[nH]2)c(F)cn1` (mixture of isomers) [Example 489, (S)—N—((R)-1-(5-cyanopyridin-2-yl)pyrrolidin-3-yl)-4-(5-(5-fluoro-2-methoxypyridin-4-yl)-1H-pyrazole-3-carbonyl)-4-azaspiro[2.5]octane-7-carboxamide and (S)—N—((S)-1-(5-cyanopyridin-2-yl)pyrrolidin-3-yl)-4-(5-(5-fluoro-2-methoxypyridin-4-yl)-1H-pyrazole-3-carbonyl)-4-azaspiro[2.5]octane-7-carboxamide], for which, at His6-TEV-PPARγ-(234-505), the AC50 was 0.7 nM. Also, the IC50 with UM-UC-9 engineered cells was found to be 5.5 nM.
Taken in the same sequence, the figures for `COc1cc(-c2cc(C(=O)N3CC[C@H](C(=O)Nc4cnn5ccc(C(C)O)nc45)CC34CC4)n[nH]2)c(F)cn1` (single isomer, unassigned) [Example 445-B] were 11 nM and 116 nM.
On to `COc1cc(-c2cc(C(=O)N3CC[C@H](C(=O)NCc4cn5c(n4)COCC5)CC34CC4)n[nH]2)c(F)cn1` [Example 371, (S)—N-((5,6-dihydro-8H-imidazo[2,1-c][1,4]oxazin-2-yl)methyl)-4-(5-(5-fluoro-2-methoxypyridin-4-yl)-1H-pyrazole-3-carbonyl)-4-azaspiro[2.5]octane-7-carboxamide], for which, at His6-TEV-PPARγ-(234-505), the AC50 amounted to 36.4 nM. The IC50 in the test with UM-UC-9 engineered cells (Homo sapiens, UM-UC-9, 144 h) was found to be 338 nM.
Taken in the same sequence, the figures for `COc1cc(-c2cc(C(=O)N3CC[C@H](C(=O)NCC45CC(C4)N(CC(C)(C)F)C5)CC34CC4)n[nH]2)c(F)cn1` [Example 440, (S)-4-(5-(5-fluoro-2-methoxypyridin-4-yl)-1H-pyrazole-3-carbonyl)-N-((2-(2-fluoro-2-methylpropyl)-2-azabicyclo[2.1.1]hexan-4-yl)methyl)-4-azaspiro[2.5]octane-7-carboxamide] were 410 nM and 927 nM.
`COc1cc(-c2cc(C(=O)N3CC[C@H](C(=O)NCC45COC(C)(C4)C5)CC34CC4)n[nH]2)c(F)cn1` [Example 343, (S)-4-(5-(5-fluoro-2-methoxypyridin-4-yl)-1H-pyrazole-3-carbonyl)-N-((1-methyl-2-oxabicyclo[2.1.1]hexan-4-yl)methyl)-4-azaspiro[2.5]octane-7-carboxamide]: the AC50 on His6-TEV-PPARγ-(234-505) was 20 nM. In addition, in the test with UM-UC-9 engineered cells (Homo sapiens, UM-UC-9, 144 h), the IC50 was found to be 93 nM.
Taken in the same sequence, the figures for `COc1cc(-c2cc(C(=O)N3CC[C@H](C(=O)NC4CCN(CC(C)(C)O)C4)CC34CC4)[nH]n2)c(F)cn1` (stereo partly drawn) [Example 345-A, (S)-4-(3-(5-Fluoro-2-methoxypyridin-4-yl)-1H-pyrazole-5-carbonyl)-N-(1-(2-hydroxy-2-methylpropyl)pyrrolidin-3-yl)-4-azaspiro[2,5]octane-7-carboxamide] were 161 nM and 445 nM.
On to `COc1cc(-c2nc(C(=O)N3[C@@H]4CC[C@H]3CC(C(=O)NC3CCC(O)(C(F)(F)F)CC3)C4)n[nH]2)c(F)cn1` (stereo partly drawn) [Example 305, (1R,3S,5S)-8-[5-(5-fluoro-2-methoxypyridin-4-yl)-1H-1,2,4-triazole-3-carbonyl]-N-[(1r,4r)-4-hydroxy-4-(trifluoromethyl)cyclohexyl]-8-azabicyclo[3.2.1]octane-3-carboxamide], for which, at His6-TEV-PPARγ-(234-505), the AC50 was found to be 217 nM. Further, the IC50 with UM-UC-9 engineered cells worked out at 2270 nM.
Regarding `COc1cc(-c2cc(C(=O)N3CCC(C(=O)NC(C)c4ncc(F)cc4Cl)CC34CC4)n[nH]2)c(F)cn1` (mixture of isomers) [Example 377, (S)—N—((R)-1-(3-chloro-5-fluoropyridin-2-yl)ethyl)-4-(5-(5-fluoro-2-methoxypyridin-4-yl)-1H-pyrazole-3-carbonyl)-4-azaspiro[2.5]octane-7-carboxamide and (S)—N—((S)-1-(3-chloro-5-fluoropyridin-2-yl)ethyl)-4-(5-(5-fluoro-2-methoxypyridin-4-yl)-1H-pyrazole-3-carbonyl)-4-azaspiro[2.5]octane-7-carboxamide], the AC50 at His6-TEV-PPARγ-(234-505) amounted to 20.2 nM. Also, the IC50 in the test on UM-UC-9 engineered cells stood at 25.9 nM.
As to `COc1cc(-c2cc(C(=O)N3CCC(C(=O)NC4CCC(O)(C(F)(F)F)C(O)C4)CC34CC4)n[nH]2)c(F)cn1` (mixture of isomers) [Example 474-B], at His6-TEV-PPARγ-(234-505), the AC50 is 4.6 nM. Also, in the test on UM-UC-9 engineered cells, the IC50 amounted to 50.6 nM.
With `COc1cc(-c2cc(C(=O)N3CCC(NC(=O)C4CCC(O)(C(F)(F)F)CC4)CC34CC4)n[nH]2)c(F)cn1` (single isomer, unassigned) [Example 347-B], the AC50 at His6-TEV-PPARγ-(234-505) came to 198 nM. The IC50 in the test with UM-UC-9 engineered cells amounted to 600 nM.
Consider `COc1cc(-c2cc(C(=O)N3CC[C@H](C(=O)NC4CCC5(CC4)N([S+]([O-])C(C)(C)C)CC5(F)F)CC34CC4)n[nH]2)c(F)cn1` (stereo partly drawn) [Example 409, (7S)—N-(1-(tert-butylsulfinyl)-3,3-difluoro-1-azaspiro[3.5]nonan-7-yl)-4-(5-(5-fluoro-2-methoxypyridin-4-yl)-1H-pyrazole-3-carbonyl)-4-azaspiro[2.5]octane-7-carboxamide], for which the AC50 on His6-TEV-PPARγ-(234-505) came to 30.9 nM. For the same molecule, the IC50 in the test on UM-UC-9 engineered cells (Homo sapiens, UM-UC-9, 144 h) stood at 39.1 nM.
In the case of `COc1cc(-c2cc(C(=O)N3CCC(C(=O)NC4CCN(c5ccc(F)cc5)C4)CC3)n[nH]2)c(Cl)cn1` (racemic) [Example 253, 1-(5-(5-chloro-2-methoxypyridin-4-yl)-1H-pyrazole-3-carbonyl)-N-(1-(4-fluorophenyl)pyrrolidin-3-yl)piperidine-4-carboxamide], the AC50 at His6-TEV-PPARγ-(234-505) stood at 51 nM. Also, the IC50 in the test with UM-UC-9 engineered cells (Homo sapiens, UM-UC-9, 144 h) turned out to be 387 nM.
Regarding `COc1cc(-c2cc(C(=O)N3CCC(C(=O)NCc4ncc(N5CC6CC5CN6)cc4Cl)CC34CC4)n[nH]2)c(F)cn1` (mixture of isomers) [Example 462, (S)—N-((5-((1R,4R)-2,5-diazabicyclo[2.2.1]heptan-2-yl)-3-chloropyridin-2-yl)methyl)-4-(3-(5-fluoro-2-methoxypyridin-4-yl)-1H-pyrazole-5-carbonyl)-4-azaspiro[2.5]octane-7-carboxamide and (S)—N-((5-((1S,4S)-2,5-diazabicyclo[2.2.1]heptan-2-yl)-3-chloropyridin-2-yl)methyl)-4-(3-(5-fluoro-2-methoxypyridin-4-yl)-1H-pyrazole-5-carbonyl)-4-azaspiro[2.5]octane-7-carboxamide], the AC50 at His6-TEV-PPARγ-(234-505) stood at 14.1 nM. The IC50 in the test with UM-UC-9 engineered cells stood at 513 nM.
Turning to `COc1cc(-c2cc(C(=O)N3CCC(C(=O)NCc4ccc(OC(F)F)cc4)CC3)n[nH]2)c(Cl)cn1` [Example 151, 1-(5-(5-chloro-2-methoxypyridin-4-yl)-1H-pyrazole-3-carbonyl)-N-(4-(difluoromethoxy)benzyl)piperidine-4-carboxamide], at His6-TEV-PPARγ-(234-505), the AC50 is 48.1 nM. Besides, the IC50 with UM-UC-9 engineered cells (Homo sapiens, UM-UC-9, 144 h) turned out to be 539 nM.
The corresponding values for `COc1cc(-c2cc(C(=O)N3[C@@H]4CC[C@H]3C[C@H](C(=O)N[C@@H]3CCN(CC5(C(F)(F)F)CC5)C3)C4)n[nH]2)c(F)cn1` [Example 437, (1R,3s,5S)-8-(5-(5-fluoro-2-methoxypyridin-4-yl)-1H-pyrazole-3-carbonyl)-N—((R)-1-((1-(trifluoromethyl)cyclopropyl)methyl)pyrrolidin-3-yl)-8-azabicyclo[3.2.1]octane-3-carboxamide] are 14.8 nM and 67.6 nM.
Taken in the same sequence, the figures for `COc1cc(-c2cc(C(=O)N3CCC(C(=O)NC4CCCc5cnccc54)CC3)n[nH]2)c(Cl)cn1` (racemic) [Example 191, 1-(5-(5-chloro-2-methoxypyridin-4-yl)-1H-pyrazole-3-carbonyl)-N-(5,6,7,8-tetrahydroisoquinolin-5-yl)piperidine-4-carboxamide] were 838 nM and 2010 nM.
Consider `COc1cc(-c2cc(C(=O)N3CC[C@H](C(=O)NC4CCC(O)(C(C)(F)F)CC4)CC34CC4)n[nH]2)c(F)cn1` (single isomer, unassigned) [Example 375-A], for which the AC50 at His6-TEV-PPARγ-(234-505) was found to be 3.4 nM. Moreover, the IC50 in the test with UM-UC-9 engineered cells is 1.3 nM.
Taken in the same sequence, the figures for `COc1cc(-c2cc(C(=O)N3CC[C@H](C(=O)NC4CCC(C)(C)N(C)C4)CC34CC4)n[nH]2)c(F)cn1` (single isomer, unassigned) [Example 424-B] were 209 nM and 929 nM.
For `COc1cc(-c2cc(C(=O)N3CCC(C(=O)NC4CCN(c5ccccc5F)C4)CC3)n[nH]2)c(Cl)cn1` (racemic) [Example 222, 1-(5-(5-chloro-2-methoxypyridin-4-yl)-1H-pyrazole-3-carbonyl)-N-(1-(2-fluorophenyl)pyrrolidin-3-yl)piperidine-4-carboxamide], the AC50 at His6-TEV-PPARγ-(234-505) is 18.5 nM. The IC50 with UM-UC-9 engineered cells (Homo sapiens, UM-UC-9, 144 h) worked out at 208 nM.
On to “(S)-4-(5-(2-chloro-5-fluoropyridin-4-yl)-1H-pyrazole-3-carbonyl)-N-((1r,4S)-4-hydroxy-4-(trifluoromethyl)cyclohexyl)-4-azaspiro[2.5]octane-7-carboxamide and (R)-4-(5-(2-chloro-5-fluoropyridin-4-yl)-1H-pyrazole-3-carbonyl)-N-((1r,4R)-4-hydroxy-4-(trifluoromethyl)cyclohexyl)-4-azaspiro[2.5]octane-7-carboxamide [Example 529]”, for which the AC50 at His6-TEV-PPARγ-(234-505) came out at 10.6 nM. For the same molecule, in the test with UM-UC-9 engineered cells, the IC50 worked out at 34.2 nM.
